Data reported in patent US5599813A, “Thiazolopyrimidine derivatives” (Daiichi Pharmaceutical Co., Ltd., priority 1993, dated 1997).
Where a name gives a salt, the structure may show the parent alone.

System: Chorioallantoic membrance (CAM)
Assay: CAM angiogenesis Inhibition Test
Assay type: in vivo, chicken (4 to 5 day old fertilized egg)
Conditions: CAM of fertilized chicken egg, two days after; for Inhibition activity (%): 10 μl/egg in physiological saline or DMSO, 37.6° C., control vascularization settled as 100; for Judgement: class of inhibition activity, significance by Student's t-test, 2880 min
Method: Test was carried out by […]-Folkman's method (Nature, 297, 307 (1982)), but partially modified as described in Exp. Path. 30, 143 (1986). Chorioallantoic membrance (CAM) of 4 to 5 day old fertilized chicken egg (Babucock) was exposed. […] Vascularization (angiogenesis) of the control group was settled as 100 and the degree to the test sample was calcurated and expressed as inhibition activity. The significance of activity was determined by Student's t-test and the case over 50 % was indicated to + and the case below 50 % to i as shown in the following table.

Row | SMILES | Inhibition activity (%) | Judgement
1 | Cl.O=C(Nc1cc(Cl)cc(Cl)c1)C1=C(C2CCC2)N2CCCN=C2S1 [Example 2, N-(3,5-Dichlorophenyl)-3-cyclobutyl-6,7-dihydro-5H-thiazolo[3,2-a]pyrimidine-2-carboxamide hydrochloride] | 82.5% | + (over 50 %)
2 | CCCCC1=C(C(=O)Nc2cc(F)cc(F)c2)SC2=NCCCN21.Cl [Example 39, N-(3,5-Difluorophenyl)-3-butyl-6,7-dihydro-5H-thiazolo[3,2-a]pyrimidine-2-carboxamide hydrochloride] | 32.3% | –
3 | Cl.O=C(Nc1cc(Cl)cc(Cl)c1)C1=C(C2CCCC2)N2CCCN=C2S1 [Example 9, N-(3,5-Dichlorophenyl)-3-cyclopentyl-6,7-dihydro-5H-thiazolo[3,2-a]pyrimidine-2-carboxamide hydrochloride] | 37.2% | –
4 | CCCCCCCCc1ccc(NC(=O)C2=C(CCC)N3CCCN=C3S2)cc1.Cl [Example 19, N-(4-n-Octylphenyl)-3-propyl-6,7-dihydro-5H-thiazolo[3,2-a]-pyrimidine-2-carboxamide hydrochloride] | 69.3% | + (over 50 %)
5 | CCCC1=C(C(=O)Nc2cc(Cl)cc(Cl)c2)SC2=NCCCN21 [Example 13, N-(3,5-dichlorophenyl)-3-propyl-6,7-dihydro-5H-thiazolo[3,2a-]pyrimidine-2-carboxamide hydrochloride] | 76.5% | + (over 50 %)
6 | CCCCCCCCc1ccc(NC(=O)C2=C(C3CCC3)N3CCCN=C3S2)cc1.Cl [Example 8, N-(4-Octylphenyl)-3-cyclobutyl-6,7-dihydro-5H-thiazolo[3,2-a]pyrimidine-2-carboxamide hydrochloride] | 82.7% | + (over 50 %)
7 | CCCC1=C(C(=O)Nc2ccc(SCCCCCC(=O)O)cc2)SC2=NCCCN21.Cl [Example 90, N-[4-(5-Carboxypentylthio)phenyl]-3-propyl-6,7-dihydro-5H-thiazolo[3,2-a]pyrimidine-2-carboxamide hydrochloride] | 93.2% | + (over 50 %)
8 | CCCCCCCCc1ccc(NC(=O)C2=C(CCC#N)N3CCCN=C3S2)cc1.Cl [Example 82, N-(4-Octylphenyl)-3-(2-cyanoethyl)-6,7-dihydro-5H-thiazolo-[3,2-a]pyrimidine-2-carboxamide hydrochloride] | 88.4% | + (over 50 %)
9 | CCCC1=C(C(=O)Nc2ccc(C(C)(C)C)cc2)SC2=NCCCN21.Cl [Example 16, N-(4-tert-Butylphenyl)-3-propyl-6,7-dihydro-5H-thiazolo[3,2-a]pyrimidine-2-carboxamide hydrochloride] | 57.1% | + (over 50 %)
10 | O=C(O)COC1=C(C(=O)Nc2cc(Cl)cc(Cl)c2)SC2=NCCCN21 [Example 114, N-(3,5-Dichlorophenyl)-3-carboxymethyloxy-6,7-dihydro-5H-thiazolo[3,2-a]pyrimidine-2-carboxamide] | 94.3% | + (over 50 %)
